Here are results for one compound from patent US20100092389A1 (The General Hospital Corporation, priority 2008, published 2010).

For data set [1], the system named is iliac atherosclerotic plaques. Briefly: Catheter-based NIRF sensing of ICG enhancement of atherosclerotic plaques. It is filed as in vivo, rabbit. The conditions noted are these: immediately after injection; 6 mg ICG in 1.2 mL. How it is done:
White rabbits (weight 3-3.5 kg) underwent balloon-denudation of iliac arteries and hypercholsterolemic diet in order to develop inflamed atheromata. The rabbits were placed on a high-cholesterol diet (1% cholesterol and 5% peanut oil) for 1 week prior to balloon injury. After an overnight fast, anesthesia was induced with IM ketamine (35 mg/kg) and xylazine (5 mg/kg). Anesthesia was continued using inhaled isoflurane (1-5% v/v) and supplemental 02. Next a 3F Fogarty arterial embolectomy catheter was advanced into the common iliac vessels of the rabbits. The balloon was inflated to tension (0.6-1.0 ml). A total of 3 pullbacks were performed in the left and right iliac artery, as well as the infrarenal aorta. Following injury, the introducer was removed and the left carotid artery was ligated. Rabbits continued on the high-cholesterol diet for 4-8 weeks. […]
Anesthesia was initiated as above, and a 5F introducer was placed into the right carotid artery and then delivered to the descending thoracic aorta under fluoroscopic guidance. […] The maximum voltage was recorded from each digitized pullback. The in vivo plaque target-to-background ratio (TBR) was thus calculated as TBR=(maximum voltage detected from all pullbacks)/(background voltage). […]

The subject of data set [2] is atherosclerotic plaques in the iliac and aorta. The data set can be described thus: Ex vivo fluorescence reflectance imaging (FRI) of resected atherosclerotic aortoiliac vessels. Also noted: species or system rabbit. As to conditions: excitation/emission 762 nm/800 nm. How it is done:
Resected atherosclerotic aortoiliac vessels underwent fluorescence reflectance imaging (FRI) with an excitation/emission filter 762 nm/800 nm and a 5 second exposure time. Light images were also obtained with an exposure time of 100 msec. Region-of-interest (ROI) analysis was performed using visual identification of plaques and normal background on FRI images. The plaque target-to-background ratio was defined as: TBR=(plaque ROI signal)/(adjacent vessel background ROI signal).

The test system of a further data set is plaque neovessels. The data set can be described thus: Correlative fluorescence microscopy of atheromata sections. The conditions noted are these: x200, FIG. 4(f). Further details: species or system rabbit.
For data set [3] the following is noted: cited from earlier work.
For data set [4] the following is noted: in vivo; cited from earlier work.
The conditions of data set [5]: cited from earlier work. This is another data set of the same source.

Description for plaque neovessels: After imaging, vessels were immersed in 4% paraformaldehyde for 24 hours. Vascular rings were then frozen in an optical cutting temperature compound for histopathological analysis. Serial 5 micrometer cryosections of rabbit atheromata were cut. […] Tissue sections were viewed using a microscope and images were captured using a digital camera.

With `CC1(C)C(/C=C/C=C/C=C/C=C2\N(CCCCS(=O)(=O)O)c3ccc4ccccc4c3C2(C)C)=[N+](CCCCS(=O)(=O)[O-])c2ccc3ccccc3c21` [ICG, Indocyanine green], the “NIRF signal, voltage recordings from the intravascular space of the iliac arteries” value in data set [1] is more than 10 V. Also, in data set [2], the “ex vivo plaque signal-to-background” value is on record as “very high plaque signal-to-background”. For the same compound, the “ICG signal in plaque neovessel by fluorescence microscopy” value with plaque neovessels is “strong ICG signal in a plaque neovessel”. The “time usable as intravascular angiographic agent” value in data set [3] (bound to proteins) is reported as “about 40 minutes”. Further, in data set [3] (in vivo), the route of excretion entry is given as “rapidly excreted unmetabolized into the bile” and the “time to elimination from the bloodstream” value is reported as “about 2 hours”. The “severe side effect incidence” value in data set [4] is listed as “less than 0.1%”. For the same compound, the solubility in saline entry in data set [5] is “not readily soluble in saline”.
